Here are results for one compound from article PMC3772510 (ChemMedChem, 2011).

This data set in a line: aqueous solubility. In kind it is physicochemical.

≈ marks a conversion by molar mass, not a printed value.

What is called aqueous solubility is the dissolved amount per volume that the medium holds. Low values mean a poorly soluble substance, high ones a readily soluble substance.

Compound `COc1ccc(C2=N[C@@H](c3ccc(Cl)cc3)[C@@H](c3ccc(Cl)cc3)N2C(=O)N2CCNC(=O)C2)c(OC(C)C)c1` [Nutlin-3a, nutlin-3a] registered an aqueous solubility of 100 µg/mL (≈ 172 µM).
